Measurements: patent US20260285850A1, “SUBSTITUTED OXAZOLIDINONES AND IMIDAZOLINONES AS HERBICIDES” (FMC CORPORATION, priority 2023, published 2026)

Assays:
Format in all cases: in vivo
[1] = test system: kochia (Bassia scoparia); assay: Test A postemergence application, visual injury rating 0-100
How it was run: (§1)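 Compounds formulated in a non-phytotoxic solvent with surfactant are sprayed onto soil of freshly planted loam-sand pots ahead of emergence, or onto emerged plants 2-10 cm tall. After a 10-day greenhouse period, each species is scored visually for injury against untreated controls.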

[2] = test system: ragweed (common ragweed, Ambrosia artemisiifolia); assay: as above
How it was run: as §1

[3] = test system: horseweed (Erigeron canadensis); assay: as above
How it was run: as §1

[4] = test system: green foxtail (Setaria viridis); assay: as above
How it was run: as §1

[5] = test system: corn (Zea mays); assay: as above
How it was run: as §1

[6] = test system: ryegrass, Italian (italian ryegrass, Lolium multiflorum); assay: as above
How it was run: as §1

[7] = test system: palmer (palmer amaranth, palmer pigweed, Amaranthus palmeri); assay: as above
How it was run: as §1

[8] = test system: blackgrass (Alopecurus myosuroides); assay: as above
How it was run: as §1

[9] = test system: soybean (Glycine max); assay: as above
How it was run: as §1

[10] = test system: oat, wild (wild oat, Avena fatua); assay: as above
How it was run: as §1

[11] = test system: barnyardgrass (Echinochloa crus-galli); assay: as above
How it was run: as §1

[12] = test system: galium (catchweed bedstraw, Galium aparine); assay: as above
How it was run: as §1

[13] = test system: wheat (Triticum aestivum); assay: as above
How it was run: as §1

[14] = test system: kochia (Bassia scoparia); assay: Test A preemergence soil spray, visual injury rating 0-100; settings: 10 days
How it was run: as §1

[15] = test system: ragweed (common ragweed, Ambrosia artemisiifolia); assay: as above; settings: 10 days
How it was run: as §1

[16] = test system: green foxtail (Setaria viridis); assay: as above; settings: 10 days
How it was run: as §1

[17] = test system: corn (Zea mays); assay: as above; settings: 10 days
How it was run: as §1

[18] = test system: ryegrass, Italian (italian ryegrass, Lolium multiflorum); assay: as above; settings: 10 days
How it was run: as §1

[19] = test system: palmer (palmer amaranth, palmer pigweed, Amaranthus palmeri); assay: as above; settings: 10 days
How it was run: as §1

[20] = test system: blackgrass (Alopecurus myosuroides); assay: as above; settings: 10 days
How it was run: as §1

[21] = test system: soybean (Glycine max); assay: as above; settings: 10 days
How it was run: as §1

[22] = test system: oat, wild (wild oat, Avena fatua); assay: as above; settings: 10 days
How it was run: as §1

[23] = test system: barnyardgrass (Echinochloa crus-galli); assay: as above; settings: 10 days
How it was run: as §1

[24] = test system: wheat (Triticum aestivum); assay: as above; settings: 10 days
How it was run: as §1

[25] = test system: sedge, umbrella (small-flower umbrella sedge, Cyperus difformis); assay: Test B flooded paddy test, visual plant response rating 0-100; settings: 250 g ai/ha, Flood, applied to paddy water, evaluated after 13 days
How it was run: (§2)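 Each species was raised to two leaves before flooding to a 3 cm depth and dosing the water with compound. Injury was assessed by eye after 13 days under greenhouse conditions.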

[26] = test system: barnyardgrass (Echinochloa crusgalli); assay: as above; settings: 250 g ai/ha, Flood, applied to paddy water, evaluated after 13 days
How it was run: as §2

[27] = test system: rice (Oryza sativa); assay: as above; settings: 250 g ai/ha, Flood, applied to paddy water, evaluated after 13 days
How it was run: as §2

[28] = test system: ducksalad (Heteranthera limosa); assay: as above; settings: 250 g ai/ha, Flood, applied to paddy water, evaluated after 13 days
How it was run: as §2

[29] = 62 g ai/ha, postemergence, 10 days, 0 = no effect, 100 = complete control
[30] = Postemergence, 16 g ai/ha, greenhouse 10 days, 0 no effect, 100 complete control
[31] = 62 g ai/ha, 0 = no effect, 100 = complete control

For `C=CC1(C(=O)NC2CC(C(=O)OC)C2)CN(c2cc(F)cc(F)c2)C(=O)O1` (stereo not shown) [Compound 172], the “Kochia plant response rating (0-100)” value [1, 29] was 90, the “Kochia plant response rating (0 to 100 scale)” value [1, 30] was 90 and the “Ragweed plant response rating (0-100)” value [2, 29] was 20. For the same compound, the “Ragweed plant response rating (0 to 100 scale)” value [2, 30] was 10, the “Horseweed plant response rating (0-100)” value [3, 29] was 10 and the “Horseweed plant response rating (0 to 100 scale)” value [3, 30] was 0. The “Foxtail, Green plant response rating (0-100)” value [4, 29] was 90, the “Foxtail, Green plant response rating (0 to 100 scale)” value [4, 30] was 80 and the “Corn plant response rating (0-100)” value [5, 29] was 100. The “Corn plant response rating (0 to 100 scale)” value [5, 30] was 100, the “Ryegrass, Italian plant response rating (0-100)” value [6, 29] was 90 and the “Ryegrass, Italian plant response rating (0 to 100 scale)” value [6, 30] was 80. For the same compound, the “Pigweed, Palmer plant response rating (0-100)” value [7, 29] was 60, the “Pigweed, Palmer plant response rating (0 to 100 scale)” value [7, 30] was 10 and the “Blackgrass plant response rating (0-100)” value [8, 29] was 90. The “Blackgrass plant response rating (0 to 100 scale)” value [8, 30] was 90, the “Soybean plant response rating (0-100)” value [9, 29] was 80 and the “Soybean plant response rating (0 to 100 scale)” value [9, 30] was 80. For the same compound, the “Oat, Wild plant response rating (0-100)” value [10, 29] was 90, the “Oat, Wild plant response rating (0 to 100 scale)” value [10, 30] was 90 and the “Barnyardgrass plant response rating (0-100)” value [11, 29] was 90. For the same compound, the “Barnyardgrass plant response rating (0 to 100 scale)” value [11, 30] was 80, the “Galium plant response rating (0-100)” value [12, 29] was 90 and the “Galium plant response rating (0 to 100 scale)” value [12, 30] was 90. The “Wheat plant response rating (0-100)” value [13, 29] was 90, the “Wheat plant response rating (0 to 100 scale)” value [13, 30] was 90 and the “Kochia plant response rating” value ([14]; 16 g ai/ha, 0 to 100 scale) was 0. The “Kochia plant response rating (0-100)” value [14, 31] was 100, the “Ragweed plant response rating” value ([15]; 16 g ai/ha, 0 to 100 scale) was 0 and the “Ragweed plant response rating (0-100)” value [15, 31] was 0. For the same compound, the “Foxtail, Green plant response rating” value ([16]; 16 g ai/ha, 0 to 100 scale) was 40, the “Foxtail, Green plant response rating (0-100)” value [16, 31] was 100 and the “Corn plant response rating” value ([17]; 16 g ai/ha, 0 to 100 scale) was 80. For the same compound, the “Corn plant response rating (0-100)” value [17, 31] was 90, the “Ryegrass, Italian plant response rating” value ([18]; 16 g ai/ha, 0 to 100 scale) was 40 and the “Ryegrass, Italian plant response rating (0-100)” value [18, 31] was 90. The “Pigweed, Palmer plant response rating” value ([19]; 16 g ai/ha, 0 to 100 scale) was 10, the “Pigweed, Palmer plant response rating (0-100)” value [19, 31] was 60 and the “Blackgrass plant response rating” value ([20]; 16 g ai/ha, 0 to 100 scale) was 50. The “Blackgrass plant response rating (0-100)” value [20, 31] was 90, the “Soybean plant response rating” value ([21]; 16 g ai/ha, 0 to 100 scale) was 0 and the “Soybean plant response rating (0-100)” value [21, 31] was 70. For the same compound, the “Oat, Wild plant response rating” value ([22]; 16 g ai/ha, 0 to 100 scale) was 30, the “Oat, Wild plant response rating (0-100)” value [22, 31] was 90 and the “Barnyardgrass plant response rating” value ([23]; 16 g ai/ha, 0 to 100 scale) was 0. The “Barnyardgrass plant response rating (0-100)” value [23, 31] was 90, the “Wheat plant response rating” value ([24]; 16 g ai/ha, 0 to 100 scale) was 90 and the “Wheat plant response rating (0-100)” value [24, 31] was 100. For the same compound, the “Plant response rating, Sedge, Umbrella (0 to 100 scale, 0 is no effect and 100 is complete control)” value [25] was 100, the “Plant response rating, Barnyardgrass (0 to 100 scale, 0 is no effect and 100 is complete control)” value [26] was 95 and the “Plant response rating, Rice (0 to 100 scale, 0 is no effect and 100 is complete control)” value [27] was 70. For the same compound, the “Plant response rating, Ducksalad (0 to 100 scale, 0 is no effect and 100 is complete control)” value [28] was 80.
